Data on seven molecules can be found in patent US20260256962A1, “PRODRUGS FOR COMPOUNDS SPECIFIC TO GRANZYME B AND USES THEREOF” (CYTOSITE BIOPHARMA INC., priority 2021, published 2026).

A short description of data set [1]: In vivo conversion of [^18F] granzyme B prodrugs to active form, radioactive metabolite screening of blood by radio-HPLC. Further details: species or system male CD-1 mice. The settings on record: for conversion to the active form: in vivo, mouse plasma 5 minutes after administration (FIGS. 4C, 5C); for 5 min (% active form in blood) / 15 min (% active form in blood): male CD-1 mice, tail vein injection, radio-HPLC; for 5 min (% active form in blood): blood 5 minutes post-injection; for 15 min (% active form in blood): blood 15 minutes post-injection. The text has this:
In vivo conversion of prodrugs was monitored by radioactive metabolite screening studies performed by injection of [^18F] granzyme B tracers in male CD-1 mice followed by analysis of extracted blood samples by radiometric HPLC. Results are reported as percent active form present in blood (Table 11).
Briefly, male CD-1 mice were anesthetized prior to dosing with approximately 250 μCi [^18F] granzyme B tracer via tail vein injection (n=3 mice/timepoint). For blood collection, mice were sacrificed following cardiac exsanguination with a syringe pre-rinsed with sodium heparin at 5 and 15 minutes post-injection and samples were prepared for analysis via radio-HPLC.
Blood samples were centrifuged at 1500 RCF for 5 minutes to allow for separation of plasma. Plasma samples were mixed with two volumes of methanol, vortexed for 30 seconds, and then centrifuged at 1500 RCF for 2 minutes. The supernatant was separated from the pellet and diluted 1:4 with PBS buffer pH 7.4 or water prior to analysis by HPLC.
Samples were then analyzed on an Agilent 1290 series UPLC UV coupled with a BGO coincidence detector. The HPLC method utilized 2) Phenomenex Monolithic C18 (100×4.6 mm); 100-200 μL injection volume; flow-rate: 1.2 mL/min; solvent for A: 20 mM ammonium acetate in water; solvent for B: 100% methanol; gradient: initial hold at 5% B hold for 1 min, 5% to 40% in 7 min, hold 40% B for 2 min, increase from 40% to 95% B in 1 min, hold 95% B for 2 min, and then return to 5% B to reequilibrate.

Another data set deals with T1, granzyme B (Homo sapiens, UniProt P10144).
T1 construct: In Vivo Imaging of ^18F-Granzyme B Tracers in a Matrigel Mouse Model of Active and Pro-Form Granzyme B; purchased Enzo Life Sciences; host or cells: purified from human lymphocytes
Nature of the data set: In vivo PET/CT imaging of ^18F-granzyme B tracers in Matrigel mouse model of active and pro-form granzyme B. Details: species or system female nude athymic mice. The following applies: nude athymic mice, i.v. radiotracer, static PET 75 minutes post-injection. As for the experimental part: Female nude athymic (5-6 weeks, 15-30 g) mice were purchased from Jackson Laboratories. Both granzyme B (Human lymphocytes, Enzo Life Sciences) and inactivated human pro-form granzyme B (R&D Systems) were also commercially purchased. […] Each granzyme B enzyme were then brought up to a final concentration of 0.05 μg/ul using phosphate buffered saline (GE, Hyclone). Matrigel (65 μl, Corning) was mixed with 15 μl of 0.75 μg of each granzyme B enzyme (granzyme B and pro-form granzyme B) within each Eppendorf tube. The mice were then anesthetized with 2.5-3% isoflurane mixed with oxygen. Approximately 60-80 μl of granzyme B/Matrigel or the pro-form granzyme B/Matrigel were then injected using a 28-gauge×0.5-inch insulin syringe (Terumo) to form implants on the right and left shoulder flanks of the mice. […] After the radiotracer injection, the catheter was removed and measured for any remaining residual radioactivity. […] PET signal in the granzyme B implants were quantified by manually drawing regions of interest (ROIs) over the Matrigel implants based on the fused PET/CT images and the corresponding activity values were determined with VivoQuant (Invicro, Massachusetts). […] Target to background ratios (TBR's) were then calculated by dividing the granzyme B % ID/g value by the pro-form granzyme B % ID/g value.

T1 sequence (P10144 21-247): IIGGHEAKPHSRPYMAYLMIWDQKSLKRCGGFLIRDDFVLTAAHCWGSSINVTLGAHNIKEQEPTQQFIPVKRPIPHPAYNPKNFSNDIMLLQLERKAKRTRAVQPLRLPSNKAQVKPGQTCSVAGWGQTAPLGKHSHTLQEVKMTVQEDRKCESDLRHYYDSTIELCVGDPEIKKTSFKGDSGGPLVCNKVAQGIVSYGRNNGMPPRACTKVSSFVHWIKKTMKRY

Regarding `CC[C@H](C)[C@H](NC(=O)CCNC(=O)CCNC(=O)[C@@H](CCC(=O)O)NC(=O)CN1CCC(CN2CCN3CCN(CC2)CC(=O)[O][Al]([F])[O]C(=O)C3)CC1)C(=O)N[C@H]1CCc2cccc3c2N(C1=O)[C@H](C(=O)N[C@H]1CC(=O)O[C@H]1OC)C3` [[^18F] 4-Al], in data set [1], the “conversion to the active form” value was “rapid conversion to the active form”, the “5 min (% active form in blood)” value was found to be 92% and the “15 min (% active form in blood)” value worked out at 94%. Besides, the “differentiation in Matrigel (granzyme B vs pro-form granzyme B implants)” value on granzyme B was “good differentiation in Matrigel”.

Regarding `CCO[C@@H]1OC(=O)C[C@@H]1NC(=O)[C@@H]1Cc2cccc3c2N1C(=O)[C@@H](NC(=O)[C@@H](NC(=O)COCCNC(=O)[C@@H](CCC(=O)O)NC(=O)[C@@H](CCC(=O)O)NC(=O)CN1CCC(CN2CCN4CCN(CC2)CC(=O)[O][Al]([F])[O]C(=O)C4)CC1)[C@@H](C)CC)CC3` [[^18F] 8-Al], in data set [1], the “5 min (% active form in blood)” value stood at 86% and the “15 min (% active form in blood)” value was 100%.

On to `CCO[C@@H]1OC(=O)C[C@@H]1NC(=O)[C@@H]1Cc2cccc3c2N1C(=O)[C@@H](NC(=O)[C@@H](NC(=O)CCNC(=O)CCNC(=O)[C@@H](CCC(=O)O)NC(=O)CN1CCC(CN2CCN4CCN(CC2)CC(=O)[O][Al]([F])[O]C(=O)C4)CC1)[C@@H](C)CC)CC3` [[^18F] 5-Al], for which, in data set [1], the “5 min (% active form in blood)” value is recorded as 98% and the “15 min (% active form in blood)” value turned out to be 100%.

In the case of `CC[C@H](C)[C@H](NC(=O)COCCNC(=O)[C@@H](CCC(=O)O)NC(=O)[C@@H](CCC(=O)O)NC(=O)CN1CCC(CN2CCN3CCN(CC2)CC(=O)[O][Al]([F])[O]C(=O)C3)CC1)C(=O)N[C@H]1CCc2cccc3c2N(C1=O)[C@H](C(=O)N[C@H]1CC(=O)O[C@H]1OC)C3` [[^18F] 7-Al], in data set [1], the “5 min (% active form in blood)” value came out at 69% and the “15 min (% active form in blood)” value stood at 78%.

For `CC[C@H](C)[C@H](NC(=O)CCNC(=O)CCNC(=O)[C@@H](CCC(=O)O)NC(=O)CN1CCC(CN2CCN3CCN(CC2)CC(=O)[O][Al]([F])[O]C(=O)C3)CC1)C(=O)N[C@H]1CCc2cccc3c2N(C1=O)[C@H](C(=O)N[C@H]1CC(=O)O[C@@H]1OC)C3` [[^18F] 3-Al], in data set [1], the “conversion to the active form” value is listed as “slow conversion to the active form”, the “5 min (% active form in blood)” value is listed as 13% and the “15 min (% active form in blood)” value amounted to 17%. Further, at granzyme B, the “differentiation in Matrigel (granzyme B vs pro-form granzyme B implants)” value is reported as “poor differentiation in Matrigel”.

Regarding `CC[C@H](C)[C@H](NC(=O)COCCNC(=O)[C@@H](CCC(=O)O)NC(=O)[C@@H](CCC(=O)O)NC(=O)CN1CCC(CN2CCN3CCN(CC2)CC(=O)[O][Al]([F])[O]C(=O)C3)CC1)C(=O)N[C@H]1CCc2cccc3c2N(C1=O)[C@H](C(=O)N[C@H]1CC(=O)O[C@@H]1OC)C3` [[^18F] 6-Al], in data set [1], the “5 min (% active form in blood)” value worked out at 11% and the “15 min (% active form in blood)” value is on record as 16%.

Regarding `CC[C@H](C)[C@H](NC(=O)CCNC(=O)CCNC(=O)CN(CC(=O)O)C(=O)CN1CCC(CN2CCN3CCN(CC2)CC(=O)[O][Al]([F])[O]C(=O)C3)CC1)C(=O)N[C@H]1CCc2cccc3c2N(C1=O)[C@H](C(=O)N[C@H]1CC(=O)O[C@H]1OC)C3` [[^18F] 9-Al], in data set [1], the “5 min (% active form in blood)” value is 90% and the “15 min (% active form in blood)” value was 100%.
